Where a name gives a salt, the structure may show the parent alone.

Common to all, as to assay type: cell-based
Experiment [1] relates to P. aeruginosa ATCC 27853. Kind of experiment: MIC, microtiter broth dilution. The following applies: Pseudomonas aeruginosa, ATCC27853, 18 h. The method, then:
(§1) The minimum inhibitory concentration (MIC), the lowest concentration of the antibiotic which inhibits growth of the test organism, is determined by the microtiter broth dilution method using 0.1 ml Muller-Hinton II broth (Baltimore Biological Laboratories) per well. A suitable oxygen scavenger (i.e., cysteine or dithiothreitol) is added to the assay medium for the testing of compounds according to Formula I because of the sensitivity of those compounds to oxidation. An inoculum level of 1-5×10^5 CFU/ml and a range of antibiotic concentrations (32 0.004 μg/ml) are used.

The subject of experiment [2] is E. coli ATCC 25922. Kind of experiment: MIC, microtiter broth dilution. The following applies: Escherichia coli, ATCC25922, 18 h. The method, then: as §1
(In general: Dilution methods test growth across graded concentrations, often in twofold steps.)

The test system of experiment [3] is S. haemolyticus AVAH 88-3. Nature of the experiment: MIC, microtiter broth dilution. The conditions noted are these: Staphylococcus haemolyticus, AVAH883, 18 h; S. haemolyticus AVAH 88-3; in the presence of cysteine (0.05%); read-out: MIC. As to the method:
as §1

The test system of experiment [4] is E. coli UBMS 89-2 (tetracycline-sensitive). Kind of experiment: MIC, microtiter broth dilution. The conditions noted are these: Escherichia coli, 18 h. The method, then: as §1
Experiment [5] deals with M. morganii NEMC 87-119. Nature of the experiment: MIC, microtiter broth dilution. The following applies: Morganella morganii, NEMC87119, 18 h. As to the method: as §1
Experiment [6] deals with S. aureus IVES 1983 (methicillin-resistant). Kind of experiment: MIC, microtiter broth dilution. The conditions noted are these: Staphylococcus aureus, 18 h. As to the method:
as §1

The test system of experiment [7] is S. aureus IVES 2943 (methicillin-resistant). Nature of the experiment: MIC, microtiter broth dilution. The conditions noted are these: Staphylococcus aureus, 18 h. As to the method:
as §1

Experiment [8] concerns E. coli UBMS 90-5 (tetracycline-sensitive). Nature of the experiment: MIC, microtiter broth dilution. The conditions noted are these: Escherichia coli, 18 h. The method, then:
as §1

The subject of experiment [9] is S. aureus UBMS 90-3 (tetracycline-sensitive). Kind of experiment: MIC, microtiter broth dilution. The following applies: Staphylococcus aureus, 18 h. As to the method: as §1
The subject of experiment [10] is E. faecalis ATCC 29212. Nature of the experiment: MIC, microtiter broth dilution. The following applies: Enterococcus faecalis, ATCC29212, 18 h. As to the method: as §1
Experiment [11] relates to S. marcescens FPOR 87-33. Kind of experiment: MIC, microtiter broth dilution. The conditions noted are these: Serratia marcescens, FPOR8733, 18 h. As to the method:
as §1

Experiment [12] concerns tetracycline sensitive and resistant Gram-positive and Gram-negative bacteria. Nature of the experiment: In vitro antibacterial evaluation, statements on the whole panel. As to the method: as §1
Experiment [13] has as its system X. maltophilia FPOR 87-210. Nature of the experiment: MIC, microtiter broth dilution. The following applies: Stenotrophomonas maltophilia, FPOR87210, 18 h, no cysteine stated. The method, then: as §1
Experiment [14] deals with E. coli UBMS 88-2 (tetracycline-sensitive). Kind of experiment: MIC, microtiter broth dilution. The conditions noted are these: Escherichia coli, 18 h, no cysteine stated. As to the method: as §1
Experiment [15] has as its system E. coli UBMS 90-4 (tetM). Nature of the experiment: MIC, microtiter broth dilution. The conditions noted are these: Escherichia coli, 18 h. As to the method:
as §1

For experiment [16], the system named is S. aureus UBMS 88-4 (tetracycline-sensitive). Nature of the experiment: MIC, microtiter broth dilution. The following applies: Staphylococcus aureus, 18 h, no cysteine stated. The method, then: as §1
The subject of experiment [17] is S. aureus ATCC 29213. Kind of experiment: MIC, microtiter broth dilution. The following applies: Staphylococcus aureus, ATCC29213, 18 h, no cysteine stated. As to the method: as §1
Experiment [18] relates to S. aureus UBMS 88-7 (tetK). Nature of the experiment: microbe, parasite or virus in culture. The following applies: Staphylococcus aureus, 18 h. The method, then:
as §1

The test system of experiment [19] is S. aureus UBMS 88-5 (tetM). Nature of the experiment: microbe, parasite or virus in culture. The conditions noted are these: Staphylococcus aureus, 18 h. The method, then:
as §1

Experiment [20] concerns E. coli UBMS 88-1 (tetB). Nature of the experiment: microbe, parasite or virus in culture. The conditions noted are these: Escherichia coli, 18 h. As to the method: as §1
Where [21] appears, read: in the presence of cysteine (0.05%).

Regarding `CCN(CC)c1cc(N)c(O)c2c1C[C@H]1C[C@H]3[C@H](N(C)C)C(O)=C(C(N)=O)C(=O)[C@@]3(O)C(O)=C1C2=O` [C, 9-Amino-7-(diethylamino)-6-demethyl-6-deoxytetracycline sulfate], the MIC in [1] (setting [21]) came to 8 mg/L; in [2] (setting [21]), 0.5 mg/L; in experiment [3], 0.12 mg/L; in [4] (setting [21]) it was 0.5 mg/L; in experiment [5] (setting [21]), 2 mg/L; in [6] (setting [21]) it was 0.25 mg/L. Besides, the MIC was 0.25 mg/L in [7] (setting [21]); 1 mg/L in experiment [8] (setting [21]); 0.03 mg/L in experiment [9] (setting [21]); 0.12 mg/L in experiment [10] (setting [21]); 4 mg/L in [11] (setting [21]). The “antibacterial activity versus D” value in [12] (comparator D) was “enhancement of antibacterial activity”.
Take `CCN(CC)c1ccc(O)c2c1C[C@H]1C[C@H]3[C@H](N(C)C)C(O)=C(C(N)=O)C(=O)[C@@]3(O)C(O)=C1C2=O` [D, 7-(Diethylamino)-6-demethyl-6-deoxytetracycline sulfate]: the MIC is 32 mg/L in experiment [1] (no cysteine stated); 1 mg/L in experiment [2] (no cysteine stated); 0.25 mg/L in experiment [13]; 2 mg/L in experiment [14]; greater than 32 mg/L in experiment [15]; 4 mg/L in [4] (no cysteine stated). Besides, the MIC came out at 32 mg/L in [5] (no cysteine stated); 8 mg/L in [6] (no cysteine stated); 8 mg/L in [7] (no cysteine stated); 0.03 mg/L in experiment [16]; 2 mg/L in [8] (no cysteine stated); 0.03 mg/L in experiment [9] (no cysteine stated). Further, the MIC was 8 mg/L in [10] (no cysteine stated); less than 0.015 mg/L in experiment [17]; 32 mg/L in [11] (no cysteine stated); 0.12 mg/L in [18]; 16 mg/L in experiment [19]; 32 mg/L in [20]. The “Antibacterial potency in the presence of cysteine” value in experiment [12] (in the presence of cysteine versus without) is recorded as “not enhanced”.
